Our source for the GI50 and TGI values is PubChem BioAssay (NCI).

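Test compounds were applied to cells in 96-well plates for 48 hours at 5 doses. GI50 = concentration required for 50% inhibition of growth. The concentration for full growth arrest is given as TGI.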 A value given as a limit tells only on which side of the number the result lay.

Some test systems named below: NCI/ADR-RES ovarian; NCI-H226 lung; SK-MEL-28 melanoma; DU-145 prostate; OVCAR-3 ovarian; CCRF-CEM leukemia; MDA-MB-231 breast; COLO 205 colon; T-47D breast; HOP-62 NSCLC.
What all share (test): NCI anticancer screen, dose series, 48 h

For the compound `Cc1ccc(S(=O)(=O)c2c(COC(=O)c3cccc(C)c3)c(-c3ccccc3)nn2C)cc1`, the GI50 in the test on NCI/ADR-RES ovarian, in the test on NCI-H226 lung, in the test with SK-MEL-28 melanoma, in the test with DU-145 prostate, with OVCAR-3 ovarian and in the test on CCRF-CEM leukemia was over 100 µM in each case. For the same compound, the GI50 in the test on MDA-MB-231 breast is over 100 µM; with COLO 205 colon, over 100 µM; in the test with T-47D breast, 8.53 µM; with HOP-62 NSCLC, over 100 µM. Moreover, the TGI in the test with NCI/ADR-RES ovarian, in the test with NCI-H226 lung, in the test on SK-MEL-28 melanoma, in the test on DU-145 prostate, in the test with OVCAR-3 ovarian and in the test with CCRF-CEM leukemia was over 100 µM each time. In addition, the TGI in the test on MDA-MB-231 breast, with COLO 205 colon, in the test on T-47D breast and in the test on HOP-62 NSCLC was over 100 µM throughout.
As for `COc1cc(OC)c2nc(C)c3c(c2c1)SCC3`, the TGI in the test with NCI/ADR-RES ovarian was 65.5 µM; with NCI-H226 lung it was 43.8 µM; in the test on SK-MEL-28 melanoma, over 100 µM; with DU-145 prostate it was over 100 µM; in the test with OVCAR-3 ovarian, 36.4 µM; in the test with CCRF-CEM leukemia, over 100 µM. For the same compound, the TGI in the test with MDA-MB-231 breast is 44.7 µM; in the test on COLO 205 colon, over 100 µM; in the test with T-47D breast it was 58 µM; in the test on HOP-62 NSCLC, 34.6 µM.
In the case of `CC1=C(c2cccc(O)c2)[C@H](c2ccc(OCCN3CC(CF)C3)cc2)Oc2ccc(O)cc21`, the GI50 is 15 µM in the test with NCI/ADR-RES ovarian; 10.7 µM with NCI-H226 lung; 5.3 µM in the test on SK-MEL-28 melanoma; 4.18 µM in the test on DU-145 prostate; 10.8 µM in the test with OVCAR-3 ovarian; 4.72 µM in the test with CCRF-CEM leukemia. Also, the GI50 in the test with MDA-MB-231 breast was 4.87 µM; in the test on COLO 205 colon it was 6.34 µM; with T-47D breast it was 0.0747 µM; with HOP-62 NSCLC, 11 µM. Besides, the TGI was found to be 31 µM in the test with NCI/ADR-RES ovarian; 28.2 µM in the test on NCI-H226 lung; 18 µM in the test on SK-MEL-28 melanoma; 15 µM with DU-145 prostate; 24.4 µM in the test on OVCAR-3 ovarian; 21.2 µM with CCRF-CEM leukemia. Further, the TGI in the test with MDA-MB-231 breast came out at 17.4 µM; with COLO 205 colon it was 23.1 µM; in the test on T-47D breast, 19.9 µM; with HOP-62 NSCLC, 27.5 µM.
For the compound `Cc1cc2c(C(C)C)c(O)c(O)cc2c(O)c1-c1c(C)cc2c(C(C)C)c(O)c(O)cc2c1O`, the GI50 in the test on NCI/ADR-RES ovarian was 20.7 µM; with NCI-H226 lung, 16.5 µM; in the test with SK-MEL-28 melanoma, 16.8 µM; in the test with DU-145 prostate, 22 µM; in the test with OVCAR-3 ovarian it was 14.4 µM; in the test on CCRF-CEM leukemia, 3.91 µM. In addition, the GI50 in the test on MDA-MB-231 breast was 13.5 µM; in the test on COLO 205 colon, 3.84 µM; in the test on T-47D breast, 19.1 µM; in the test with HOP-62 NSCLC, 13 µM. Besides, the TGI in the test with NCI/ADR-RES ovarian came out at 48.9 µM; with NCI-H226 lung it was 34.9 µM; with SK-MEL-28 melanoma, 32.8 µM; with DU-145 prostate, 78 µM; with OVCAR-3 ovarian it was 29.8 µM; in the test on CCRF-CEM leukemia, 21.5 µM. Further, the TGI amounted to 34.8 µM in the test with MDA-MB-231 breast, 15 µM with COLO 205 colon, 45.7 µM with T-47D breast and 30.2 µM in the test with HOP-62 NSCLC.
For the compound `COc1ccc2c(c1)c(CC(=O)[Se]C)c(C)n2C(=O)c1ccc(Cl)cc1`, the GI50 in the test on NCI/ADR-RES ovarian was over 0.237 µM; in the test on SK-MEL-28 melanoma, over 0.202 µM; in the test with DU-145 prostate, over 0.423 µM; in the test on OVCAR-3 ovarian, over 0.367 µM; in the test with CCRF-CEM leukemia, over 0.391 µM; with MDA-MB-231 breast, over 0.383 µM. In addition, the GI50 was over 0.608 µM with COLO 205 colon and over 0.306 µM in the test on HOP-62 NSCLC. Further, the TGI in the test on NCI/ADR-RES ovarian was over 0.695 µM; with NCI-H226 lung, over 0.27 µM; in the test on SK-MEL-28 melanoma it was over 0.588 µM; in the test with DU-145 prostate it was over 0.807 µM; in the test on OVCAR-3 ovarian, over 0.583 µM; in the test with CCRF-CEM leukemia it was over 1 µM. Moreover, the TGI with MDA-MB-231 breast is over 0.637 µM; in the test with COLO 205 colon, over 1 µM; with T-47D breast, over 1 µM; in the test with HOP-62 NSCLC, over 0.615 µM.
On to `C#CC#CC#CC#CC#CC#CC#CC#CCC1OCC(COC(=O)O[C@@H](C(=O)O[C@H]2C[C@@]3(O)[C@@H](OC(=O)c4ccccc4)[C@@H]4[C@]5(OC(C)=O)CO[C@@H]5C[C@H](O)[C@@]4(C)C(=O)[C@H](OC(C)=O)C(=C2C)C3(C)C)[C@@H](NC(=O)c2ccccc2)c2ccccc2)O1` (stereo partly specified), for which the GI50 was over 33.3 µM in the test with NCI/ADR-RES ovarian; 2.22 µM in the test on NCI-H226 lung; 0.25 µM in the test on SK-MEL-28 melanoma; 0.0961 µM in the test with DU-145 prostate; 0.0971 µM with OVCAR-3 ovarian; 0.191 µM in the test with CCRF-CEM leukemia. Besides, the GI50 in the test on MDA-MB-231 breast is 0.447 µM; in the test with COLO 205 colon it was 0.103 µM; with T-47D breast, 0.205 µM; in the test on HOP-62 NSCLC it was 0.775 µM. Besides, the TGI in the test on NCI/ADR-RES ovarian was over 33.3 µM; in the test with NCI-H226 lung, over 33.3 µM; in the test on SK-MEL-28 melanoma it was over 33.3 µM; with CCRF-CEM leukemia, over 33.3 µM; in the test with MDA-MB-231 breast, over 33.3 µM; with COLO 205 colon it was over 26.8 µM. Moreover, the TGI in the test on T-47D breast and in the test on HOP-62 NSCLC was over 33.3 µM throughout.
